Data: ChEMBL document CHEMBL4602644, “Synthesis of PJOV56, a new quinoxalinyl-hydrazone derivative able to induce autophagy and apoptosis in colorectal cancer cells, and related compounds” (Bioorg Med Chem Lett, 2020)
The source made the active and inactive calls. No cut-off for these calls is given here.

How the values were obtained:
[1] = tested on: HCT-116; assay: Cytotoxicity against human HCT116 cells assessed as cell growth inhibition at 5 ug/ml measured after 72 hrs by MTT assay relative to control; type: functional; details: HCT-116, 72 h, read-out: GI
[2] = tested on: HL-60; assay: Cytotoxicity against human HL60 cells assessed as cell growth inhibition at 5 ug/ml measured after 72 hrs by MTT assay relative to control; type: functional; details: HL-60, 72 h, read-out: GI
[3] = tested on: OVCAR-8; assay: Cytotoxicity against human OVCAR8 cells assessed as cell growth inhibition at 5 ug/ml measured after 72 hrs by MTT assay relative to control; type: functional; details: OVCAR-8, 72 h, read-out: GI
[4] = tested on: HCT-116; assay: Cell cycle arrest in human HCT116 cells assessed as accumulation at G0/G1 phase at 0.1 uM measured after 48 hrs by propidium iodide staining based flow cytometry (reference value: 41.67 %); type: functional
[5] = tested on: HCT-116; assay: Cell cycle arrest in human HCT116 cells assessed as accumulation at S phase at 0.1 uM measured after 48 hrs by propidium iodide staining based flow cytometry (reference value: 33.29 %); type: functional
[6] = tested on: HCT-116; assay: Cell cycle arrest in human HCT116 cells assessed as accumulation at G2/M phase at 0.1 uM measured after 48 hrs by propidium iodide staining based flow cytometry (reference value: 24.98 %); type: functional
[7] = tested on: SF-295; assay: Cytotoxicity against human SF295 cells assessed as reduction in cell viability measured after 72 hrs by MTT assay; type: functional, cell-based; details: SF-295, 72 h
[8] = tested on: HCT-116; assay: Induction of morphological changes in human HCT116 cells assessed as bleb formation at 0.2 uM measured after 48 hrs by propidium iodide staining based flow cytometry; type: functional, cell-based
[9] = tested on: L929; assay: Cytotoxicity against mouse L929 cells assessed as reduction in cell viability measured after 72 hrs by MTT assay; type: cell-based; details: L929, 72 h
[10] = tested on: HCT-116; assay: Cell cycle arrest in human HCT116 cells assessed as accumulation at G0/G1 phase at 0.2 uM measured after 48 hrs by propidium iodide staining based flow cytometry (reference value: 41.67 %); type: functional
[11] = tested on: HCT-116; assay: Cell cycle arrest in human HCT116 cells assessed as accumulation at S phase at 0.2 uM measured after 48 hrs by propidium iodide staining based flow cytometry (reference value: 33.29 %); type: functional
[12] = tested on: HCT-116; assay: Cell cycle arrest in human HCT116 cells assessed as accumulation at G2/M phase at 0.2 uM measured after 48 hrs by propidium iodide staining based flow cytometry (reference value: 24.98 %); type: functional
[13] = tested on: HCT-116; assay: Induction of morphological changes in human HCT116 cells assessed as cell pyknosis at 0.2 uM measured after 48 hrs by propidium iodide staining based flow cytometry; type: functional
[14] = tested on: HCT-116; assay: Induction of DNA fragmentation in human HCT116 cells at 0.2 uM measured after 48 hrs by propidium iodide staining based flow cytometry relative to control; type: functional

Structure (SMILES) | inhibition of growth at 5 µg/mL [1] | inhibition of growth at 5 µg/mL [2] | inhibition of growth at 5 µg/mL [3] | further results
C(=N\Nc1cnc2ccccc2n1)/c1ccncc1 | 33.7% | 0% | 14.9% | 
O=[N+]([O-])c1ccc(/C=N/Nc2cnc3ccccc3n2)s1 | 0.03% | 0% | 0% | 
C(=N\Nc1cnc2ccccc2n1)/c1cnc[nH]1 | 77.2% | 98.8% | 57.4% | 
C(=N\Nc1cnc2ccccc2n1)/c1cccnc1 | 18.8% | 0% | 10.2% | 
C(=N\Nc1cnc2ccccc2n1)/c1cccs1 | 21% | 19.7% | 0% | 
C(=N\Nc1cnc2ccccc2n1)/c1ccc[nH]1 | 54.3% | 96.3% | 52.3% | 
CC(=O)O[C@H]1C(=O)[C@@]2(C)[C@H]([C@H](OC(=O)c3ccccc3)[C@]3(O)C[C@H](OC(=O)[C@H](O)[C@@H](NC(=O)c4ccccc4)c4ccccc4)C(C)=C1C3(C)C)[C@]1(OC(C)=O)CO[C@@H]1C[C@@H]2O [PACLITAXEL] |  |  |  | Activity [4]: 13.83%; Activity [5]: 25.09%; Activity [6]: 61.69%
C(=N\Nc1cnc2ccccc2n1)/c1ccco1 | 9.01% | 0% | 3.56% | 
COc1cccc2c1C(=O)c1c(O)c3c(c(O)c1C2=O)C[C@@](O)(C(=O)CO)C[C@@H]3O[C@H]1C[C@H](N)[C@H](O)[C@H](C)O1 [DOXORUBICIN] |  |  |  | IC50 [7]: 250 nM; Activity [8]: Active; IC50 [9]: 660 nM; Activity [10]: 16.48%; Activity [11]: 22.72%; Activity [12]: 60.53%; Activity [13]: Active; Activity [14]: 6.02%
O=[N+]([O-])c1ccc(/C=N/Nc2cnc3ccccc3n2)o1 | 27.1% | 12.2% | 3.95% | 
